Assay results from ChEMBL document CHEMBL1208702, “Use of 2-[(18)F]fluoroethylazide for the Staudinger ligation - Preparation and characterisation of GABA(A) receptor binding 4-quinolones” (Bioorg Med Chem Lett, 2010).

Test: Displacement of [3H]Ro151788 from GABA-A receptor in Wistar rat cerebellar membrane after 1 hr by liquid scintillation counting
Assay type: cell membranes, Cerebellum

Ki: 3.6 nM
Structure (SMILES): CCc1ccc2[nH]cc(C(=O)NCCF)c(=O)c2c1
